Laboratory results as given in patent publication US5648376A, “Immunosuppressant diterpene compound” (Pharmagenesis, Inc., priority 1995, dated 1997).

Key:
[1] = system: IL-1 action on mouse thymocytes; experiment: Inhibition of IL-1 action on mouse thymocytes (proliferation, [3H] thymidine incorporation); format: cell-based; details: at about 0.2 μg/ml; rIL-1β 0.08 ng/ml plus PHA 10 μg/ml; 72 hours; range 0.012 to 0.76 μg/ml
Description: The ability of subglutinol to suppress the cell-proliferative effect of IL-1 in mouse thymocytes as an index of IL-1 action (O'Gara, 1990) was also examined. In this study, mouse thymocytes in culture were stimulated with IL-1 in the presence of phytohemagglutinin and increasing concentrations of subglutinol. The cells were cultured for 72 hours, and during the last four hours, incubated with tritiated thymidine. […] Details are given in Example 6.
Mouse thymocytes were prepared, and the action of IL-1, which stimulates thymocyte proliferation, was measured using standard techniques (O'Gara, 1990). Three to six week old C3H/HeN male mice (Simonson Laboratory, Gilroy, Calif.) were sacrificed by CO2 inhalation. Thymi were removed, separated from adherent non-thymic tissue, homogenized in Hank's balanced salt solution (HBSS, Gibco) using a glass homogenizer, and centrifuged at 200×g for 10 minutes at 15° C. Following an additional wash in HBSS, the thymocytes were resuspended in RPMI 1640 medium (Gibco) containing 50 μM 2-mercaptoethanol, 2 mM glutamine, 1 mM sodium pyruvate, non-essential amino acids 100 U/ml penicillin, 100 μg/ml streptomycin and 10% heat-inactivated fetal bovine serum. […]
Subglutinol was added, 25 μl per well, to obtain final concentrations of subglutinol between 0.001 and 0.78 μg/ml. […] Cells were harvested and counted as above. […]

[2] = system: human peripheral blood lymphocytes (PBLs); experiment: Suppression of PBL proliferation in vitro (anti-CD3 X-35 stimulated, [3H] thymidine incorporation); format: cell-based; details: X-35 5 ng/ml; 72 hours; subglutinol between 1 and 20 μg/ml
Description: One measure of immunosuppression is suppression of stimulated proliferation of peripheral blood lymphocytes (PBLs) in vitro. In the assay detailed in Example 5, PBLs were activated in vitro by addition of anti-CD3 monoclonal antibody (X-35 antibody). Subglutinol or vehicle (control) was added to each culture, at selected concentrations. After 72 hours incubation, tritiated thymidine was added to the culture medium, and incorporation of tritium into DNA was assayed as a measure of DNA synthesis associated with cell proliferation.
This example examines the ability of subglutinol to suppress the proliferation of human peripheral blood lymphocytes (PBLs) when stimulated with X-35 (AMAC #0178), an anti-CD3 surface antigen antibody. Human PBLs were prepared using an established method (Boyum). Human blood buffy coat samples, approximately 25 ml/donor, were obtained from the Stanford University Medical Center Blood Bank. […] The cell pellets were suspended in 10 ml of X-Vivo tissue culture medium (BioWhittakar, Walkersville, Md) and counted using a hemocytometer. […]
Plates were incubated at 37° C. in a 7% CO2 incubator for 72 hours. […] Samples were counted in a liquid scintillation counter (1205 Betaplate, Pharmacia LKB Biotechnology). […]

[3] = system: proliferation of lymphocytes in a mixed lymphocyte reaction; experiment: Murine mixed lymphocyte reaction (MLR); format: cell-based, mouse; details: at 0.1 μg/ml; C57Bl/6 responder, irradiated Balb/C stimulator spleen cells; 4 days
Description: A measure of immunosuppression that serves as a model for transplantation rejection is inhibition of cell proliferation in a mixed lymphocyte reaction (MLR) assay (Bradley, in Mishell, 1980). In these experiments, an MLR is induced by co-incubating responder (R) cells from one mouse strain (C57B1/6) with stimulator (S) cells from another mouse strain (Balb/C).
The responder cells proliferate in the presence of the allogenic stimulator cells. The stimulator cells are irradiated so they are unable to proliferate. After 72 hours incubation, tritiated thymidine is added to the mixed cell cultures, and incorporation of the labeled nucleotide into DNA is assayed as an index of cell proliferation.
In the MLR test reported in Example 7, responder cells were co-cultured in microtitre wells with stimulator cells, in the presence of selected concentrations of subglutinol between 0.01 and 0.3 μg/ml. The wells receiving no subglutinol would be expected to be maximally stimulated. The cells were cultured for 4 days, and labeled with [^3 H] thymidine during the last 18 hours of incubation. […]
Several controls were conducted in the MLR assay. […] The spontaneous proliferation of R was also measured. […] Cells were harvested and counted as above. […]

[4] = Evaluation of potential toxicity (MTT assay); format: cell-based; details: human, pbls, 21 hours plus 3 hours MTT
Description: Potential toxicity of the mixture was assessed by measurement the effect of subglutinol on the ability of cultured cells to reduce MTT (3-[4,5-Dimethylthiazol-2-yl]-2,5-diphenyltetrazolium bromide), an index of cellular respiration that is more sensitive in the detection of cytotoxicity than methods involving measurement of DNA replication (Green, 1984).
Potential cytotoxicities of test samples were assessed by measuring the effect of subglutinol on the reduction of MTT (3-[4,5-Dimethylthiazole-2-yl]-2,5-diphenyl-tetrazolium bromide) by cultured cells. MTT, a yellow-colored compound, is reduced by mitochondrial enzymes to form a purple crystalline reduction product, formazane, providing an index of cellular respiration as well as a sensitive assay for cytotoxicity (Green, 1984).
Cytotoxicity was assessed in cultured human PBLs. A stock solution of MTT (Sigma, St. Louis, Mo.), 5 mg/ml phosphate buffered saline, pH 7.4, was prepared and stored in the dark at 4° C. PBLs were cultured with various concentrations of test samples in flat-bottom 96 well tissue culture plate (Costar #3595) using the same conditions as in Example 5 above, except that X-35 was replaced with the appropriate medium.
Untreated cells in medium alone were used as controls in each experiment. Following 21 hours of incubation of cells, 25 μl of MTT solution was added to each well. After an additional three hour incubation, the experiment was terminated by adding a solution of 10% sodium dodecyl sulfate in 0.01 N HCl.
Following overnight incubation at 37° C. (to solubilize the formazane crystals), optical density was determined at 570-650 nm in a microplate reader (Thermo max, Molecular Devices, Calif.). Data are expressed as % cytotoxicity. Subglutinol concentrations of 0.03, 0.1, and 0.3 μg/ml gave % cytotoxicity values of 0, 20, and 28%, respectively.

**Q.** For `C=C1CCC2C3(C)CC(C=C(C)C)OC3CCC2(C)C1Cc1c(O)c(C)c(C)oc1=O` (stereo not drawn) [subglutinol], which “inhibition of IL-1 action on thymocytes (FIG. 11)” value [1] is on record?
**A.** The value was “Nearly complete inhibition”.

**Q.** What about the “percent suppression of proliferation of anti-CD3 stimulated PBLs (FIG. 10)” value [2] of the same compound?
**A.** Its value is “dose-dependent suppression”.

**Q.** And the “percent inhibition of stimulation in MLR (FIG. 12)” value [3]?
**A.** The value was “Nearly complete inhibition”.

**Q.** What about the cytotoxicity at 24 h ([4]; 0.03 μg/ml) of the same compound?
**A.** The cytotoxicity at 24 h was 0%.

**Q.** What about the cytotoxicity at 24 h ([4]; 0.1 μg/ml) of the same compound?
**A.** The cytotoxicity at 24 h was 20%.

**Q.** What about the cytotoxicity at 24 h ([4]; 0.3 μg/ml) of the same compound?
**A.** Its cytotoxicity at 24 h is 28%.
